ChEMBL document CHEMBL4130610, “Isolation of Flavonoids and Flavonoid Glycosides from Myrsine africana and Their Inhibitory Activities against Mushroom Tyrosinase” (J Nat Prod, 2018)
pIC50: −log10 of the molar value.

How the values were obtained:
Tyrosinase [1] = target: T1, Tyrosinase (Agaricus bisporus, UniProt O42713); test: Inhibition of mushroom tyrosinase using L-tyrosine as substrate pretreated for 5 mins followed by substrate addition measured over 30 mins by spectrophotometric method
T1 sequence (O42713 whole entry): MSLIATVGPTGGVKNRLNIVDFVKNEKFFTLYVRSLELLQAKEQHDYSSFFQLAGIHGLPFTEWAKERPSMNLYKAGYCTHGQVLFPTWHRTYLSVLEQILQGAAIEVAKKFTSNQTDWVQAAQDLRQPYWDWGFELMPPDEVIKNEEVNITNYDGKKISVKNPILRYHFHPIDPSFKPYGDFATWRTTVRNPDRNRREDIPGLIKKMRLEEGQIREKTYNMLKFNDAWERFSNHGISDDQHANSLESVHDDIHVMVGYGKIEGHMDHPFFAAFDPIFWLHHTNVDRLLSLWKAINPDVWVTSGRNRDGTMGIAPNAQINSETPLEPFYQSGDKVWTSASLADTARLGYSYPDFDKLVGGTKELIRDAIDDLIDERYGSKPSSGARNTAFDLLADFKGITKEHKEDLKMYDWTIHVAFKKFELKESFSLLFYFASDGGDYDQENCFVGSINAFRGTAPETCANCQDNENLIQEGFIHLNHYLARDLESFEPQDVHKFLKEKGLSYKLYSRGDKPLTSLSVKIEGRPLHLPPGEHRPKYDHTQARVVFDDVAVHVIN

Tyrosinase [2] = target: T1, Tyrosinase; test: Inhibition of mushroom tyrosinase
Tyrosinase [3] = target: T1, Tyrosinase; test: Inhibition of mushroom tyrosinase using L-DOPA as substrate measured at 1 min interval by spectrophotometric method

Compound	pIC50 (Tyrosinase [1])	pIC50 (Tyrosinase [3])	pIC50 (Tyrosinase [2])
CC(=O)O[C@@H]1[C@@H](O)[C@@H](OC(C)=O)[C@H](Oc2c(-c3cc(O)c(O)c(O)c3)oc3cc(O)cc(O)c3c2=O)O[C@H]1C	3.28		
CC(=O)O[C@@H]1[C@@H](O)[C@@H](O)[C@H](Oc2c(-c3cc(O)c(O)c(O)c3)oc3cc(O)cc(O)c3c2=O)O[C@H]1C	3.55		
O=c1c(O)c(-c2ccc(O)c(O)c2)oc2cc(O)cc(O)c12 [QUERCETIN]	3.62		
C[C@@H]1O[C@@H](Oc2c(-c3ccc(O)c(O)c3)oc3cc(O)cc(O)c3c2=O)[C@H](O)[C@H](O)[C@H]1O [QUERCITRIN]	3.82		4.00

The remaining molecules from weak to strong by pIC50 (Tyrosinase [1]), led by results:

pIC50 (Tyrosinase [1])	pIC50 (Tyrosinase [3])	Compound	pIC50 (Tyrosinase [2])
3.39		OC[C@H]1O[C@@H](Oc2c(O)cc(O)cc2O)[C@H](O)[C@@H](O)[C@@H]1O	
3.51		COc1c(O)cc(-c2oc3cc(O)cc(O)c3c(=O)c2O[C@@H]2O[C@@H](C)[C@H](O)[C@@H](O)[C@H]2O)cc1O	
3.72		COc1c(O)cc(-c2oc3cc(O)cc(O)c3c(=O)c2O[C@@H]2O[C@@H](C)[C@H](OC(C)=O)[C@@H](O)[C@H]2O)cc1O	
3.74		CC(=O)O[C@@H]1[C@@H](OC(C)=O)[C@@H](O)[C@H](Oc2c(-c3cc(O)c(O)c(O)c3)oc3cc(O)cc(O)c3c2=O)O[C@H]1C	
3.89	4.15	C[C@@H]1O[C@@H](OC[C@H]2O[C@@H](Oc3c(-c4ccc(O)c(O)c4)oc4cc(O)cc(O)c4c3=O)[C@H](O)[C@@H](O)[C@@H]2O)[C@H](O)[C@H](O)[C@H]1O [RUTIN]	
3.92		C[C@@H]1O[C@@H](Oc2c(-c3cc(O)c(O)c(O)c3)oc3cc(O)cc(O)c3c2=O)[C@H](O)[C@H](O)[C@H]1O	3.49
